Test results from PMC12393591, “Targeting Plasminogen Activator Inhibitor-1 with a Novel Small Molecule Inhibitor Attenuates Lung Fibrosis” (Research Square, 2025).
pIC50: −log10 of the molar value. Like-named read-outs stand apart in the source and are kept apart here. Each block holds one compound with its values, some of them ahead of it.

Columns and labels:
[1] = Non-GLP single dose PK, oral gavage; assay type: in vivo, CD-1 mice; settings: mouse plasma, single dose 30 mg/kg oral gavage, n=3, mean ± SD
Method: A non-GLP comparative, single dose PK analysis of MDI-2268 versus MDI-2517 was performed by the University of Michigan Pharmacokinetics Core in CD-1 mice. Briefly, MDI-2268 or MDI-2517 were suspended in 0.5% methylcellulose in water and given orally by gavage at 30 mg/kg (10mL/kg) to 3 mice each. Blood was collected by using heparinized calibrated pipettes at 0.5h, 2h, 4h, and 7h and centrifuged immediately at 15,000g for 10 min. The plasma was collected, which was frozen at −80°C for later LC-MS analysis.

[2] = target: recombinant active human PAI-1 (Homo sapiens, UniProt P05121); assay: PAI-1 inhibitory activity against uPA (fluorogenic uPA substrate); assay type: biochemical; settings: for pIC50: read-out: IC50 for inhibiting the activity of PAI-1 against uPA
[3] = test system: lung fibrosis induced by targeted type II alveolar epithelial cell injury; settings: model of targeted AEC2 injury; previously shown by the authors; cited from earlier work
[4] = test system: TGFβ-expressing adenovirus-induced lung fibrosis; set-up: method as in PMID 21852684; settings: started 4 days after fibrosis initiation; cited from earlier work
[5] = test system: bleomycin-induced lung fibrosis; set-up: method as in PMID 26859294; settings: mice following bleomycin injury; cited from earlier work
[6] = test system: bleomycin-induced lung fibrosis; assay: Single-dose bleomycin lung injury model (hydroxyproline, weight, histology); assay type: in vivo, C57BL/6 mice
Method: Weight and age matched mice were anesthetized with isoflurane and received an oropharyngeal instillation of bleomycin (2.5 u/kg in 50 μL of sterile PBS) (Sigma Pharmaceuticals). Control mice received 50 μl of PBS alone. Mice were intermittently weighed through day 21. Hydroxyproline content of the lung was measured as previously described. The left lung was inflation-fixed at 25 cm H2O pressure with 10% neutral-buffered formalin, removed en bloc, further fixed in 10% neutral-buffered formalin overnight, and then paraffin embedded. Five-micron sections were stained using hematoxylin and eosin, and picrosirius red methods.

[7] = test system: lung fibrosis induced by targeted type II alveolar epithelial cell injury; assay: Targeted AEC2 injury model (diphtheria toxin in DTR mice; hydroxyproline, weight, histology); assay type: in vivo, DTR-expressing mice (C57BL/6 background); settings: 60 mg/kg twice daily
[8] = test system: idiopathic pulmonary fibrosis; set-up: method as in PMID 40387033; settings: patients with IPF, phase 3 clinical trial; cited from earlier work

Sequence of recombinant active human PAI-1 (P05121 24-402): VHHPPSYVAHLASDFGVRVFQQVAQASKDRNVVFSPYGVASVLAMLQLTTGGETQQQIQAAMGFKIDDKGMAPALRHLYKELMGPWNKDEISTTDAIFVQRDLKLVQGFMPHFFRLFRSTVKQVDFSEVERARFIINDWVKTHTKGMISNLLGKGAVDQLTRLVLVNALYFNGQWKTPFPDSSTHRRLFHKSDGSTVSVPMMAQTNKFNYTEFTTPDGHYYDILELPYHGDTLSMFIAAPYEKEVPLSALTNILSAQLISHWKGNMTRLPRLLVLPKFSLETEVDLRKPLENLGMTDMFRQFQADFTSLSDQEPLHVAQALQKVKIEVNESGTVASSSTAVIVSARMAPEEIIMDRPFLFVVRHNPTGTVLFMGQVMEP

AUC0-7h obs [1]: 7405 ± 1302 ng·h/mL | pIC50 ([2]; buffer containing 10% human PAI-1-depleted plasma): 4.17 | pIC50 ([2]; buffer with 50 nM purified human vitronectin): 4.12 | pIC50 ([2]; in buffer alone): 3.85 | fold more effective than Tiplaxtinin at inhibiting PAI-1 ([2]; in the presence of VTN): greater than 7 fold
Compound: NNC(=O)C(=O)NCc1cccc(OC(F)(F)F)c1 [MDI-2268]

Compound: Cc1ccc(=O)n(-c2ccccc2)c1 [pirfenidone]
severity of pulmonary scarring [3]: attenuate the severity of pulmonary scarring

Compound: O=C(COCC(=O)N1CCN(C(c2ccccc2)c2ccccc2)CC1)Nc1ccc(Cl)cc1C(=O)O [TM5275]
lung collagen accumulation [4]: significantly decrease lung collagen accumulation

Compound: CC(C)(C)c1ccc2oc(-c3ccc4cc(OCCCCCC(C(=O)[O-])C(=O)[O-])ccc4c3)nc2c1.[Na+].[Na+] [SK-216]
lung fibrosis [5]: modestly attenuate lung fibrosis

Compound: COC(=O)c1ccc2c(c1)NC(=O)/C2=C(\Nc1ccc(N(C)C(=O)CN2CCN(C)CC2)cc1)c1ccccc1 [Nintedanib]
body weight vs vehicle ([6]; 60 mg/kg twice daily from day 11): recovery of body weight | lung collagen content (hydroxyproline) day 21 ([6]; 60 mg/kg twice daily, 10 days from day 11): statistically significantly attenuated | areas of lung consolidation, picrosirius red histopathology ([6]; 60 mg/kg twice daily, 10 days from day 11, day 21): significantly attenuated | severity of pulmonary scarring [3]: attenuate the severity of pulmonary scarring | lung hydroxyproline content day 21 ([7]; 10 days from day 11): statistically significantly reduced | weight loss vs vehicle-treated injured group ([7]; 10 days from day 11): mitigated the severity of the weight loss | histopathologic changes (alveolar wall thickening, picrosirius red staining) ([7]; 10 days from day 11, day 21): significantly attenuated

Compound: [O-][S+]1CCc2nc(N3CCC(c4ncc(Cl)cn4)CC3)nc(NC3(CO)CCC3)c21 (stereo not shown) [BI 1015550]
rate of lung function decline [8]: reduced the rate of lung function decline
